Source: PubChem BioAssay AID1963840 (Molecular Pharmacology Branch, DTP, NCI, 2024)

Test system: 695427-040-R-J1-PDC complex spheroid viability
Assay: Anticancer human tumor 695427-040-R-J1-PDC patient-derived colon adenocarcinoma cell line growth inhibition [POLQ]
Settings: for IC50: curve of first compound; for viability, T/C: stronger effect = lower value; active = viability on the fitted dose curve at most 10% of control; inactive = the rest
Procedure, shortened: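 PDC + HUVEC + MSC complex spheroids; POLQ inhibitors ± partner drugs; top conc. at/near clinical Cmax, else 10 microM (SN-38 1 microM), half-log dilutions; 37 degrees C, 5% CO2.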

[1] = second compound 0.0316 µM, first compound 0.0316 µM
[2] = second compound 0.0316 µM, first compound 0.1 µM
[3] = second compound 0.0316 µM, first compound 0.316 µM
[4] = second compound 0.0316 µM, first compound 1 µM
[5] = second compound 0.0316 µM, first compound 3.16 µM
[6] = second compound 0.0316 µM, first compound 10 µM
[7] = second compound 0.1 µM, first compound 0.0316 µM
[8] = second compound 0.1 µM, first compound 0.1 µM
[9] = second compound 0.1 µM, first compound 0.316 µM
[10] = second compound 0.1 µM, first compound 1 µM
[11] = second compound 0.1 µM, first compound 3.16 µM
[12] = second compound 0.1 µM, first compound 10 µM
[13] = second compound 0.316 µM, first compound 0.0316 µM
[14] = second compound 0.316 µM, first compound 0.1 µM
[15] = second compound 0.316 µM, first compound 0.316 µM
[16] = second compound 0.316 µM, first compound 1 µM
[17] = second compound 0.316 µM, first compound 3.16 µM
[18] = second compound 0.316 µM, first compound 10 µM
[19] = second compound 1 µM, first compound 0.0316 µM
[20] = second compound 1 µM, first compound 0.1 µM
[21] = second compound 1 µM, first compound 0.316 µM
[22] = second compound 1 µM, first compound 1 µM
[23] = second compound 1 µM, first compound 3.16 µM
[24] = second compound 1 µM, first compound 10 µM
[25] = second compound 3.16 µM, first compound 0.0316 µM
[26] = second compound 3.16 µM, first compound 0.1 µM
[27] = second compound 3.16 µM, first compound 0.316 µM
[28] = second compound 3.16 µM, first compound 1 µM
[29] = second compound 3.16 µM, first compound 3.16 µM
[30] = second compound 3.16 µM, first compound 10 µM
[31] = second compound 10 µM, first compound 0.0316 µM
[32] = second compound 10 µM, first compound 0.1 µM
[33] = second compound 10 µM, first compound 0.316 µM
[34] = second compound 10 µM, first compound 1 µM
[35] = second compound 10 µM, first compound 3.16 µM
[36] = second compound 10 µM, first compound 10 µM
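Note: spheroids exposed to compounds for seven days.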
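Throughout, for viability, T/C: 100% = DMSO vehicle control viability.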

C=CC(=O)N1CCN(c2nc(=O)n(-c3c(C)ccnc3C(C)C)c3nc(-c4c(O)cccc4F)c(F)cc23)C(C)C1 (stereo not given) + Cc1cccc(N(C)C(=O)C2C(O)CCN2c2nc(C)cc(C(F)(F)F)c2C#N)c1
inactive: viability, T/C [1] 98.8% | viability, T/C [2] 93.9% | viability, T/C [3] 101% | viability, T/C [4] 105% | viability, T/C [5] 107% | viability, T/C [6] 110% | viability, T/C [7] 96.2% | viability, T/C [8] 92.4% | viability, T/C [9] 101% | viability, T/C [10] 108% | viability, T/C [11] 99.9% | viability, T/C [12] 104% | viability, T/C [13] 103% | viability, T/C [14] 103% | viability, T/C [15] 101% | viability, T/C [16] 104% | viability, T/C [17] 101% | viability, T/C [18] 106% | viability, T/C [19] 98.1% | viability, T/C [20] 98.5% | viability, T/C [21] 97.8% | viability, T/C [22] 99.4% | viability, T/C [23] 97.5% | viability, T/C [24] 102% | viability, T/C [25] 97.8% | viability, T/C [26] 84.5% | viability, T/C [27] 97.9% | viability, T/C [28] 93.4% | viability, T/C [29] 103% | viability, T/C [30] 107% | viability, T/C [31] 87.8% | viability, T/C [32] 91.8% | viability, T/C [33] 87.5% | viability, T/C [34] 101% | viability, T/C [35] 102% | viability, T/C [36] 105%
> 10 µM: IC50 (second compound 0.0316 µM) | IC50 (second compound 0.1 µM) | IC50 (second compound 0.316 µM) | IC50 (second compound 1 µM) | IC50 (second compound 3.16 µM) | IC50 (second compound 10 µM)

CC(C)n1c(=O)n(C)c2cnc3cc(F)c(-c4ccc(OCCCN5CCCCC5)nc4)cc3c21 + Cc1cccc(N(C)C(=O)C2C(O)CCN2c2nc(C)cc(C(F)(F)F)c2C#N)c1
> 10 µM: IC50 (second compound 0.0316 µM) | IC50 (second compound 0.1 µM) | IC50 (second compound 0.316 µM) | IC50 (second compound 1 µM) | IC50 (second compound 3.16 µM) | IC50 (second compound 10 µM)
inactive: viability, T/C [1] 97.5% | viability, T/C [2] 98.8% | viability, T/C [3] 101% | viability, T/C [4] 111% | viability, T/C [5] 98.3% | viability, T/C [6] 75.8% | viability, T/C [7] 99.3% | viability, T/C [8] 102% | viability, T/C [9] 110% | viability, T/C [10] 108% | viability, T/C [11] 96.8% | viability, T/C [12] 70.3% | viability, T/C [13] 104% | viability, T/C [14] 101% | viability, T/C [15] 106% | viability, T/C [16] 113% | viability, T/C [17] 92.7% | viability, T/C [18] 68.7% | viability, T/C [19] 101% | viability, T/C [20] 102% | viability, T/C [21] 105% | viability, T/C [22] 103% | viability, T/C [23] 102% | viability, T/C [24] 67.2% | viability, T/C [25] 98.5% | viability, T/C [26] 100% | viability, T/C [27] 102% | viability, T/C [28] 98.5% | viability, T/C [29] 98.2% | viability, T/C [30] 67% | viability, T/C [31] 93.5% | viability, T/C [32] 99.9% | viability, T/C [33] 99.6% | viability, T/C [34] 101% | viability, T/C [35] 100% | viability, T/C [36] 55.7%

CC1COCCN1c1cc(-c2ccnn2C)c2ccnc(-c3ccn[nH]3)c2n1 (stereo not given) + Cc1cccc(N(C)C(=O)C2C(O)CCN2c2nc(C)cc(C(F)(F)F)c2C#N)c1
1.89 µM: IC50 (second compound 1 µM)
1.36 µM: IC50 (second compound 0.316 µM)
1.91 µM: IC50 (second compound 0.0316 µM)
2.18 µM: IC50 (second compound 0.1 µM)
1.98 µM: IC50 (second compound 3.16 µM)
inactive: viability, T/C [1] 97.1% | viability, T/C [2] 83% | viability, T/C [3] 61.4% | viability, T/C [4] 53.4% | viability, T/C [5] 49% | viability, T/C [6] 46.5% | viability, T/C [7] 95.2% | viability, T/C [8] 83.1% | viability, T/C [9] 66.1% | viability, T/C [10] 51.1% | viability, T/C [11] 49.1% | viability, T/C [12] 48.4% | viability, T/C [13] 104% | viability, T/C [14] 83.5% | viability, T/C [15] 65.3% | viability, T/C [16] 46.4% | viability, T/C [17] 49.5% | viability, T/C [18] 46.9% | viability, T/C [19] 89.3% | viability, T/C [20] 77.8% | viability, T/C [21] 59.9% | viability, T/C [22] 46.1% | viability, T/C [23] 52.8% | viability, T/C [24] 49.5% | viability, T/C [25] 97.9% | viability, T/C [26] 78.7% | viability, T/C [27] 66.1% | viability, T/C [28] 48.5% | viability, T/C [29] 49% | viability, T/C [30] 48% | viability, T/C [31] 86.5% | viability, T/C [32] 74.2% | viability, T/C [33] 61.2% | viability, T/C [34] 49.5% | viability, T/C [35] 50.4% | viability, T/C [36] 47.1%
1.79 µM: IC50 (second compound 10 µM)

CC1COCCN1c1cc(C2(S(C)(=N)=O)CC2)nc(-c2ccnc3[nH]ccc23)n1 (stereo not given) + Cc1cccc(N(C)C(=O)C2C(O)CCN2c2nc(C)cc(C(F)(F)F)c2C#N)c1
> 10 µM: IC50 (second compound 0.0316 µM) | IC50 (second compound 0.1 µM) | IC50 (second compound 0.316 µM) | IC50 (second compound 1 µM) | IC50 (second compound 3.16 µM) | IC50 (second compound 10 µM)
inactive: viability, T/C [1] 104% | viability, T/C [2] 99.1% | viability, T/C [3] 101% | viability, T/C [4] 95.1% | viability, T/C [5] 101% | viability, T/C [6] 82.5% | viability, T/C [7] 107% | viability, T/C [8] 101% | viability, T/C [9] 98.5% | viability, T/C [10] 93.8% | viability, T/C [11] 95.5% | viability, T/C [12] 81.2% | viability, T/C [13] 105% | viability, T/C [14] 95.7% | viability, T/C [15] 100% | viability, T/C [16] 93.4% | viability, T/C [17] 91.7% | viability, T/C [18] 88.8% | viability, T/C [19] 91.1% | viability, T/C [20] 91.6% | viability, T/C [21] 101% | viability, T/C [22] 103% | viability, T/C [23] 107% | viability, T/C [24] 80.9% | viability, T/C [25] 103% | viability, T/C [26] 89.8% | viability, T/C [27] 89.7% | viability, T/C [28] 89.9% | viability, T/C [29] 97% | viability, T/C [30] 73.9% | viability, T/C [31] 93.1% | viability, T/C [32] 96.8% | viability, T/C [33] 91.9% | viability, T/C [34] 87.8% | viability, T/C [35] 92.8% | viability, T/C [36] 67.1%

COc1ccc([C@@H](O)c2cc(-c3ncnc4cc(N5CCOCC5)ccc34)c(F)cc2Cl)nn1 + Cc1cccc(N(C)C(=O)C2C(O)CCN2c2nc(C)cc(C(F)(F)F)c2C#N)c1
9.23 µM: IC50 (second compound 3.16 µM)
> 10 µM: IC50 (second compound 0.0316 µM) | IC50 (second compound 0.1 µM) | IC50 (second compound 0.316 µM) | IC50 (second compound 1 µM) | IC50 (second compound 10 µM)
inactive: viability, T/C [1] 98.6% | viability, T/C [2] 94.8% | viability, T/C [3] 101% | viability, T/C [4] 99% | viability, T/C [5] 77.5% | viability, T/C [6] 57.6% | viability, T/C [7] 103% | viability, T/C [8] 103% | viability, T/C [9] 97.4% | viability, T/C [10] 91.8% | viability, T/C [11] 85.2% | viability, T/C [12] 57.3% | viability, T/C [13] 109% | viability, T/C [14] 104% | viability, T/C [15] 103% | viability, T/C [16] 92.7% | viability, T/C [17] 78.5% | viability, T/C [18] 53.6% | viability, T/C [19] 100% | viability, T/C [20] 93.8% | viability, T/C [21] 94% | viability, T/C [22] 92.1% | viability, T/C [23] 84.1% | viability, T/C [24] 52.3% | viability, T/C [25] 92% | viability, T/C [26] 101% | viability, T/C [27] 95.9% | viability, T/C [28] 87.4% | viability, T/C [29] 74.5% | viability, T/C [30] 48.1% | viability, T/C [31] 97.2% | viability, T/C [32] 79.7% | viability, T/C [33] 83.8% | viability, T/C [34] 78.9% | viability, T/C [35] 71.6% | viability, T/C [36] 51%
